Test results reported in patent US20250296914A1, “ANTIVIRAL COMPOUNDS AND COMPOSITIONS THEREFROM” (CONSEJO SUPERIOR DE INVESTIGACIONES CIENTÍFICAS, priority 2022, published 2025).
Where two headings read alike, the source gives them in different places.

System: SARS-CoV-2 stock strain NL/2020
Experiment: Protective effect against virus-induced cytopathic effect (crystal violet staining of Vero-E6 monolayer)
Assay type: cell-based
Conditions: Vero-E6, SARS-CoV-2 MOI 0.001, 72 h; for minimal effective concentration / PC MIN (lowest protective concentration): 50 to 0.78 μM tested; for minimal effective concentration: read-out: PC MIN (lowest protective concentration); for EC50: lowest fully protecting concentration averaged with next lower dilution, read-out: ESTIMATED EC50
[1] = Severe acute respiratory syndrome coronavirus 2, Vero C1008, 72 h

Row | SMILES | minimal effective concentration [1] [µM] | EC50 [1] [nM] | PC MIN (lowest protective concentration) [µM] | EC50 [nM]
1 | CCc1cccc(-c2ccc(NC(C#N)[C@H](Cc3c[nH]c4ccccc34)NC(=O)OC(C)(C)C)c(C(=O)OC)c2)c1 (stereo partly drawn) [(Iaa), methyl 4-(((2S)-2-((tert-butoxycarbonyl)amino)-1-cyano-3-(1H-indol-3-yl)propyl)amino)-3′-ethyl-[1,1′-biphenyl]-3-carboxylate] | 3.12 | 2340 |  | 
2 | COC(=O)c1cc(-c2cccc(N3CCCC3)c2)ccc1NC(C#N)[C@H](Cc1c[nH]c2ccccc12)NC(=O)OC(C)(C)C (stereo partly drawn) [(Iab), methyl 4-(((2S)-2-((tert-butoxycarbonyl)amino)-1-cyano-3-(1H-indol-3-yl)propyl)amino)-3′-(pyrrolidin-1-yl)-[1,1′-biphenyl]-3-carboxylate] | 3.12 | 2340 |  | 
3 | COC(=O)c1cc(-c2cccc(N(C)C)c2)ccc1NC(C#N)[C@H](Cc1c[nH]c2ccccc12)NC(=O)OC(C)(C)C (stereo partly drawn) [(Iac), methyl 4-(((2S)-2-((tert-butoxycarbonyl)amino)-1-cyano-3-(1H-indol-3-yl)propyl)amino)-3′-(dimethylamino)-[1,1′-biphenyl]-3-carboxylate] | 3.12 | 2340 |  | 
4 | COC(=O)c1cc(-c2cccc(OC(F)(F)F)c2)ccc1NC(C#N)[C@H](Cc1c[nH]c2ccccc12)NC(=O)OC(C)(C)C (stereo partly drawn) [(Iad), methyl 4-(((2S)-2-((tert-butoxycarbonyl)amino)-1-cyano-3-(1H-indol-3-yl)propyl)amino)-3′-(trifluoromethoxy)-[1,1′-biphenyl]-3-carboxylate] | 3.12 | 2340 |  | 
5 | COC(=O)c1cc(-c2ccc(N3CCN(C(C)C)CC3)nc2)ccc1NC(C#N)[C@H](Cc1c[nH]c2ccccc12)NC(=O)OC(C)(C)C (stereo partly drawn) [(Iae), methyl 2-(((2S)-2-((tert-butoxycarbonyl)amino)-1-cyano-3-(1H-indol-3-yl)propyl)amino)-5-(6-(4-isopropylpiperazin-1-yl)pyridin-3-yl)benzoate] | 3.12 | 2340 |  | 
6 | CCOc1ncc(-c2ccc(NC(C#N)[C@H](Cc3c[nH]c4ccccc34)NC(=O)OC(C)(C)C)c(C(=O)OC)c2)cn1 (stereo partly drawn) [(Iaf), methyl 2-(((2S)-2-((tert-butoxycarbonyl)amino)-1-cyano-3-(1H-indol-3-yl)propyl)amino)-5-(2-ethoxypyrimidin-5-yl)benzoate] | 3.12 | 2340 |  | 
7 | CCCCc1ccc(-c2ccc(NC(C#N)[C@H](Cc3c[nH]c4ccccc34)NC(=O)OC(C)(C)C)c(C(=O)OC)c2)cc1 (stereo partly drawn) [(Iag), methyl 4-(((2S)-2-((tert-butoxycarbonyl)amino)-1-cyano-3-(1H-indol-3-yl)propyl)amino)-4′-butyl-[1,1′-biphenyl]-3-carboxylate] |  |  | 6.25 | 4680
8 | COC(=O)c1cc(-c2cccc(Cc3ccccc3)c2)ccc1NC(C#N)[C@H](Cc1c[nH]c2ccccc12)NC(=O)OC(C)(C)C (stereo partly drawn) [(Iah), methyl 3′-benzyl-4-(((2S)-2-((tert-butoxycarbonyl)amino)-1-cyano-3-(1H-indol-3-yl)propyl)-amino)-[1,1′-biphenyl]-3-carboxylate] | 6.25 | 4680 |  | 
9 | CC(C)(C)OC(=O)N[C@@H](Cc1c[nH]c2ccccc12)C(C#N)Nc1ccccc1C(=O)NCc1ccccc1 (stereo partly drawn) [(Iai), 2-(((2S)-2-(tert-butoxycarbonylamino)-1-cyano-3-(1H-indol-3-yl)propyl)amino)-N-benzyl-benzamide] | 6.25 | 4690 |  | 
10 | CC(C)(C)OC(=O)N[C@@H](Cc1c[nH]c2ccccc12)C(C#N)Nc1ccccc1Br (stereo partly drawn) [(Iaj), (3S)-2-((2-bromophenyl)amino)-4-(1H-indol-3-yl)-3-(tert-butoxycarbonylamino) butanenitrile] | 6.25 | 4690 |  | 
11 | COC(=O)c1ccccc1NC(C#N)[C@@H](Cc1c[nH]c2ccccc12)NC(=O)OC(C)(C)C (stereo partly drawn) [(Iak), methyl 2-(((2R)-2-((tert-butoxycarbonyl)amino)-1-cyano-3-(1H-indol-3-yl)propyl)amino)-benzoate] | 12.5 | 9370 |  | 
12 | CC(=O)c1ccccc1NC(C#N)[C@H](Cc1c[nH]c2ccccc12)NC(=O)OC(C)(C)C (stereo partly drawn) [(Ial), (3S)-3-(tert-butoxycarbonylamino)-2-((2-acetylphenyl)amino)-4-(1H-indol-3-yl)butanenitrile] | 12.5 | 9370 |  | 
13 | COC(=O)c1ccc(NC(C#N)[C@H](Cc2c[nH]c3ccccc23)NC(=O)OC(C)(C)C)cc1 (stereo partly drawn) [(Iam), methyl 4-(((2S)-2-((tert-butoxycarbonyl)amino)-1-cyano-3-(1H-indol-3-yl)propyl)amino)-benzoate] | 25 | 18800 |  | 
14 | COC(=O)c1cc(-c2ccc(C(C)(C)C)cc2)ccc1NC(C#N)[C@H](Cc1c[nH]c2ccccc12)NC(=O)OC(C)(C)C (stereo partly drawn) [(Ij), methyl 4-(((2S)-2-((tert-butoxycarbonyl)amino)-1-cyano-3-(1H-indol-3-yl)propyl)amino)-4′-(tert-butyl)-[1,1′-biphenyl]-3-carboxylate] | 1.56 | 1170 |  | 
15 | COC(=O)c1c(Br)cccc1NC(C#N)[C@H](Cc1c[nH]c2ccccc12)NC(=O)OC(C)(C)C (stereo partly drawn) [(Ik), methyl 2-bromo-6-(((2S)-2-((tert-butoxycarbonyl)amino)-1-cyano-3-(1H-indol-3-yl)propyl)-amino)benzoate] | 1.56 | 1170 |  | 
16 | CCc1ccc(-c2ccc(NC(C#N)[C@H](Cc3c[nH]c4ccccc34)NC(=O)OC(C)(C)C)c(C(=O)OC)c2)cc1 (stereo partly drawn) [(Il), methyl 4-(((2S)-2-((tert-butoxycarbonyl)amino)-1-cyano-3-(1H-indol-3-yl)propyl)amino)-4′-ethyl-[1,1′-biphenyl]-3-carboxylate] | 1.56 | 1170 |  | 
17 | COC(=O)c1cc(-c2ccc(C3CC3)cc2)ccc1NC(C#N)[C@H](Cc1c[nH]c2ccccc12)NC(=O)OC(C)(C)C (stereo partly drawn) [(Im1), methyl 4-(((2S)-2-((tert-butoxycarbonyl)amino)-1-cyano-3-(1H-indol-3-yl)propyl)amino)-4′-cyclopropyl-[1,1′-biphenyl]-3-carboxylate] |  |  | 1.56 | 1170
18 | COC(=O)c1cc(-c2ccc(C3CC3)cc2)ccc1NC(C#N)[C@H](Cc1c[nH]c2ccccc12)NC(=O)OC(C)(C)C (stereo partly drawn) [(Im2), methyl 4-(((2S)-2-((tert-butoxycarbonyl)amino)-1-cyano-3-(1H-indol-3-yl)propyl)amino)-4′-cyclopropyl-[1,1′-biphenyl]-3-carboxylate] |  |  | 1.56 | 1170
19 | COC(=O)c1cc(-c2ccc(C3CC3)cc2)ccc1NC(C#N)[C@H](Cc1c[nH]c2ccccc12)NC(=O)OC(C)(C)C (stereo partly drawn) [(Im3), methyl 4-(((2S)-2-((tert-butoxycarbonyl)amino)-1-cyano-3-(1H-indol-3-yl)propyl)amino)-4′-(cyclopropyl)-[1,1′-biphenyl]-3-carboxylate] |  |  | 3.12 | 2340
20 | COC(=O)c1cc(-c2ccc(C3CC3)cc2)ccc1NC(C#N)[C@H](Cc1c[nH]c2ccccc12)NC(=O)OC(C)(C)C (stereo partly drawn) [(Im4), methyl 4-(((2S)-2-((tert-butoxycarbonyl)amino)-1-cyano-3-(1H-indol-3-yl)propyl)amino)-4′-cyclopropyl-[1,1′-biphenyl]-3-carboxylate] |  |  | 6.25 | 4690
